Assay results taken from patent publication US11554188B2, “Anti-viral dry cleaning process” ([…], LLC, priority 2020, dated 2023).
Where “and” joins values, the source holds several entries; their conditions need not be identical. Equal values may be shown once. Read-outs that look alike come from different tables or passages of the source.

What was measured:
Assay type in all cases: cell-based
[1] = test system: SARS-CoV-2 strain USA-WA1/2020; conditions: Silicone wash, and spin cycle, time 45 min
[2] = test system: SARS-CoV-2 strain USA-WA1/2020; assay: Drying cycle and washing cycle combined test results (complete dry cleaning process); conditions: for Averaged Test Sample Percent Log Reduction of complete dry cleaning process: wash/spin results combined with heat, liquid and vapor results
Source text: Data shown in Table 2 represents the individual dry cleaning process percent log reduction to the control samples for each coupon set at each process time, and averaged percent reduction of each process on viral deactivation. The silicone wash and spin rinse tests were combined with the heat, silicone liquid, and vapor exposure process results to define the overall percent viral reduction of the complete dry cleaning process. A plot showing the percent log reduction efficacy of each of the simulated dry cleaning processes and the total process in deactivating SARS-CoV-2 infected wool blend fabric material is shown in FIG. 2.
This testing was conducted to provide an accurate simulation of patented dry cleaning process in a laboratory environment.
It should be noted, that in one simulation of the drying cycle, the combination of heat, vapor, and liquid condition produced a percent log reduction to virus control of 98.00%.

[3] = test system: SARS-CoV-2 strain USA-WA1/2020; conditions: for Averaged Test Sample Percent Log Reduction to Averaged Virus Controls: averaged over 15, 30, 45 min
[4] = Complete cycle - silicone wash, spin, heat and vapor, time 45 min
[5] = Silicone wash, and spin cycle, time 45 min
[6] = Heat + Liquid + Vapor, 70° C., 15 min
[7] = Heat + Liquid + Vapor, 70° C., 30 min
[8] = Heat + Liquid + Vapor, 70° C., 45 min
[9] = Heat + Silicone Liquid, 70° C., 15 min
[10] = Heat + Silicone Liquid, 70° C., 30 min
[11] = Heat + Silicone Liquid, 70° C., 45 min
[12] = Heat + Silicone Vapor, 70° C., 15 min
[13] = Heat + Silicone Vapor, 70° C., 30 min
[14] = Heat + Silicone Vapor, 70° C., 45 min
[15] = samples G5-15 (condition cell blank; heat + liquid + vapor per Table 2), 15 min
[16] = samples G5-30 (condition cell blank; heat + liquid + vapor per Table 2), 30 min
[17] = samples G5-45 (condition cell blank; heat + liquid + vapor per Table 2), 45 min

## C[Si]1(C)O[Si](C)(C)O[Si](C)(C)O[Si](C)(C)O[Si](C)(C)O1 [D5, decamethylcyclopentasiloxane]
[1]; 89 mL, 35 RPM 16 min, spin 500 rpm 4 min
  Average of Test Replicates TCID50: 35138.40
[1]
  Average of Test Replicates Log10 TCID50: 4.54
  Averaged Test Sample Percent Log Reduction of complete dry cleaning process: 56.18%
  Log10 Reduction to virus control: 0.36
  Percent Log Reduction to Virus Control: 56.18%
[1]; listed as Silicone
  Percent Log Reduction to Virus Control: 56.18%
[2]; [4]
  Average of Test Replicates Log10 TCID50: 4.54
  Average of Test Replicates TCID50: 35138.40
[2]; Complete cycle - silicone wash, spin, heat and vapor
  Averaged Test Sample Percent Log Reduction of complete dry cleaning process: approximately 98.6%
[2]; Complete cycle - silicone wash, spin, heat and vapor, listed as Silicone
  Averaged Test Sample Percent Log Reduction of complete dry cleaning process: 98.57%
[2]; [5]
  Log10 Reduction to virus control: 0.36
  Percent Log Reduction to Virus Control: 56.18%
[2]; serial combination of 56.18% wash cycle reduction and 98.00% drying cycle reduction (heat, vapor, liquid)
  optimized calculated log reduction to the average virus controls: 99.12%
[3]; D5 Liquid Only Control, 45 min
  TCID50 (individual sample): 31.62
[3]; Heat & D5 Liquid, 15 min
  Avg TCID50: 789.8
  TCID50 (individual sample): 316.2 and 794.3 and 1258.9254
[3]; Heat & D5 Liquid, 30 min
  Avg TCID50: 1125
  TCID50 (individual sample): 879.9254 and 501.2 and 1995.2623
[3]; Heat & D5 Liquid, 45 min
  Avg TCID50: 1590
  TCID50 (individual sample): 1258.9254 and 1415.1212 and 2096.18
[3]; Heat & D5 Vapor, 15 min
  Avg TCID50: 3389.8041
  TCID50 (individual sample): 1995.2623 and 5011.8723 and 3162.2777
[3]; Heat & D5 Vapor, 30 min
  Avg TCID50: 2510
  TCID50 (individual sample): 5011.8723 and 1258.9254 (2×)
[3]; Heat & D5 Vapor, 45 min
  Avg TCID50: 2983
  TCID50 (individual sample): 3162.2777 and 3690.622 and 2096.18
[3]; [6]
  Average of Test Replicates Log10 TCID50: 1.98
  Average of Test Replicates TCID50: 94.92
  Log10 Reduction to virus control: 1.70
  Percent Log Reduction to Virus Control: 98.00%
[3]; Heat + Liquid + Vapor, 70° C., 15 min, listed as Silicone
  Percent Log Reduction to Virus Control: 98.00%
[3]; [7]
  Average of Test Replicates Log10 TCID50: 2.14
  Average of Test Replicates TCID50: 138.31
  Log10 Reduction to virus control: 1.54
  Percent Log Reduction to Virus Control: 97.09%
[3]; [8]
  Average of Test Replicates Log10 TCID50: 2.37
  Average of Test Replicates TCID50: 232.01
  Log10 Reduction to virus control: 1.31
  Percent Log Reduction to Virus Control: 95.12%
[3]; Heat + Liquid + Vapor, 70° C.
  Averaged Test Sample Percent Log Reduction to Averaged Virus Controls: approximately 96.7%
[3]; Heat + Liquid + Vapor, 70° C., listed as Silicone
  Averaged Test Sample Percent Log Reduction to Averaged Virus Controls: 96.74%
[3]; [9]
  Average of Test Replicates Log10 TCID50: 2.90
  Average of Test Replicates TCID50: 789.83
  Log10 Reduction to virus control: 0.78
  Percent Log Reduction to Virus Control: 83.39%
[3]; [10]
  Average of Test Replicates Log10 TCID50: 3.05
  Average of Test Replicates TCID50: 1125.46
  Log10 Reduction to virus control: 0.63
  Percent Log Reduction to Virus Control: 76.34%
[3]; [11]
  Average of Test Replicates Log10 TCID50: 3.20
  Average of Test Replicates TCID50: 1590.08
  Log10 Reduction to virus control: 0.48
  Percent Log Reduction to Virus Control: 66.57%
[3]; Heat + Silicone Liquid, 70° C.
  Averaged Test Sample Percent Log Reduction to Averaged Virus Controls: approximately 75.4%
[3]; Heat + Silicone Liquid, 70° C., listed as Silicone
  Averaged Test Sample Percent Log Reduction to Averaged Virus Controls: 75.43%
[3]; [12]
  Average of Test Replicates Log10 TCID50: 3.53
  Average of Test Replicates TCID50: 3389.80
  Log10 Reduction to virus control: 0.15
  Percent Log Reduction to Virus Control: 28.72%
[3]; [13]
  Average of Test Replicates Log10 TCID50: 3.40
  Average of Test Replicates TCID50: 2509.91
  Log10 Reduction to virus control: 0.28
  Percent Log Reduction to Virus Control: 47.23%
[3]; [14]
  Average of Test Replicates Log10 TCID50: 3.47
  Average of Test Replicates TCID50: 2983.03
  Log10 Reduction to virus control: 0.20
  Percent Log Reduction to Virus Control: 37.28%
[3]; Heat + Silicone Vapor, 70° C.
  Averaged Test Sample Percent Log Reduction to Averaged Virus Controls: 37.74%
[3]; Silicone Liquid Control, room temperature (23° C.), 45 min
  Average of Test Replicates Log10 TCID50: 1.50
[3]; Silicone Liquid Control, room temperature (23° C.), 45 min, wool blend coupons
  Average of Test Replicates TCID50: 31.62
[3]; [15]
  Avg TCID50: 91.92
  TCID50 (individual sample): 79.43 (2×) and 125.9
[3]; [16]
  Avg TCID50: 138.3
  TCID50 (individual sample): 209.618 and 79.43 and 125.9
[3]; [17]
  Avg TCID50: 232.1
  TCID50 (individual sample): 125.9 (2×) and 444.2
